Measured values published in ChEMBL document CHEMBL5528042, “Identification of Novel, Selective Ataxia-Telangiectasia Mutated Kinase Inhibitors with the Ability to Penetrate the Blood-Brain Barrier: The Discovery of AZD1390” (J Med Chem, 2024).
Values after ≈ are worked out from the molar mass of the structure shown.

Key:
[1] = Volume of distribution at steady state in dog at 2 mg/kg,po or 1 mg/kg,iv administration measured for 24 hrs by LC-MS/MS analysis; assay type: ADME, organism-based, Canis lupus familiaris; settings: in vivo
[2] = Bioavailability in dog at 2 mg/kg,po or 1 mg/kg,iv administration measured for 24 hrs by LC-MS/MS analysis; assay type: ADME, organism-based, Canis lupus familiaris; settings: in vivo
[3] = Bioavailability in rat at 1 mg/kg,po or 0.5 mg/kg,iv administration measured for 24 hrs by LC-MS/MS analysis; assay type: ADME, organism-based; settings: in vivo
[4] = Volume of distribution at steady state in rat at 1 mg/kg,po or 0.5 mg/kg,iv administration measured for 24 hrs by LC-MS/MS analysis; assay type: ADME, organism-based; settings: in vivo
[5] = Dissociation constant, pKa of compound; assay type: physicochemical
[6] = target: Serine/threonine-protein kinase ATR (Homo sapiens, UniProt Q13535); experiment: Inhibition of ATR in human HT-29 cells incubated for 2 hrs by Alexa Fluor 488/Hoeschst staining based plate reader assay; assay type: cell-based
[7] = Aqueous solubility of the compound in pH 7.4; assay type: physicochemical; settings: buffer
[8] = Lipophilicity, logD of the compound at pH 7.4; assay type: physicochemical; settings: buffer
[9] = Intrinsic clearance in human hepatocyte assessed per 10^6 cells; assay type: ADME, cell-based; settings: hepatocytes, read-out: CLH
MDR1, BCRP [10] = experiment: Efflux ratio of apparent permeability across basolateral to apical side over apical to basolateral side in dog MDCKII-MDR1 cells overexpressing BCRP at 1 uM incubated for 90 mins by LC-MS/MS analysis; assay type: ADME, cell-based, Canis lupus familiaris, MDCK-MDR1
[11] = Apparent permeability across apical to basolateral side in dog MDCKII-MDR1 cells overexpressing BCRP at 1 uM incubated for 90 mins by LC-MS/MS analysis; assay type: ADME, cell-based, Canis lupus familiaris, MDCK-MDR1
[12] = Apparent permeability across apical to basolateral side in dog MDCKII-MDR1 cells overexpressing BCRP at 0.1 uM incubated for 90 mins by LC-MS/MS analysis; assay type: ADME, cell-based, Canis lupus familiaris, MDCK-MDR1
[13] = Intrinsic clearance in rat hepatocyte assessed per 10^6 cells; assay type: ADME, cell-based; settings: hepatocytes, read-out: CLH
MDR1, BCRP [14] = experiment: Efflux ratio of apparent permeability across basolateral to apical side over apical to basolateral side in dog MDCKII-MDR1 cells overexpressing BCRP at 0.1 uM incubated for 90 mins by LC-MS/MS analysis; assay type: ADME, cell-based, Canis lupus familiaris, MDCK-MDR1
[15] = Tmax in Cynomolgus monkey at iv administered as bolus injection measured at 4 to 90 mins by gamma counter analysis; assay type: ADME, organism-based, Macaca fascicularis; settings: in vivo, time 4-90 min
[16] = Plasma protein binding in dog assessed as unbound fraction incubated for 16 hrs by equilibrium dialysis based UPLC-MS/MS analysis; assay type: ADME, cell-free, Canis lupus familiaris
[17] = target: DNA-dependent protein kinase catalytic subunit (Homo sapiens, UniProt P78527); experiment: Inhibition of DNA-PK (unknown origin)
[18] = Plasma protein binding in rat assessed as unbound fraction incubated for 16 hrs by equilibrium dialysis based UPLC-MS/MS analysis; assay type: ADME, cell-free
[19] = Plasma protein binding in human assessed as unbound fraction incubated for 16 hrs by equilibrium dialysis based UPLC-MS/MS analysis; assay type: ADME, cell-free
[20] = target: Serine/threonine-protein kinase mTOR (Homo sapiens, UniProt P42345); experiment: Inhibition of mTOR in human MDA-MB-468 cells incubated for 2.5 hrs by Alexa Fluor 488 staining based fluorescence analysis; assay type: cell-based
[21] = Half life in dog at 2 mg/kg,po or 1 mg/kg,iv administration measured for 24 hrs by LC-MS/MS analysis; assay type: ADME, organism-based, Canis lupus familiaris; settings: in vivo
[22] = Half life in rat at 1 mg/kg,po or 0.5 mg/kg,iv administration measured for 24 hrs by LC-MS/MS analysis; assay type: ADME, organism-based; settings: in vivo
[23] = target: Phosphatidylinositol 4,5-bisphosphate 3-kinase catalytic subunit alpha isoform (Homo sapiens, UniProt P42336); experiment: Inhibition of PI3Kalpha in human BT-474 cells incubated for 140 mins by ELISA; assay type: cell-based
[24] = target: Serine-protein kinase ATM (Homo sapiens, UniProt Q13315); experiment: Inhibition of ATM in human HT-29 cells incubated for 2 hrs by Alexa Fluor 488/Hoeschst staining based plate reader assay; assay type: cell-based

Chain of DNA-dependent protein kinase catalytic subunit (P78527 whole entry): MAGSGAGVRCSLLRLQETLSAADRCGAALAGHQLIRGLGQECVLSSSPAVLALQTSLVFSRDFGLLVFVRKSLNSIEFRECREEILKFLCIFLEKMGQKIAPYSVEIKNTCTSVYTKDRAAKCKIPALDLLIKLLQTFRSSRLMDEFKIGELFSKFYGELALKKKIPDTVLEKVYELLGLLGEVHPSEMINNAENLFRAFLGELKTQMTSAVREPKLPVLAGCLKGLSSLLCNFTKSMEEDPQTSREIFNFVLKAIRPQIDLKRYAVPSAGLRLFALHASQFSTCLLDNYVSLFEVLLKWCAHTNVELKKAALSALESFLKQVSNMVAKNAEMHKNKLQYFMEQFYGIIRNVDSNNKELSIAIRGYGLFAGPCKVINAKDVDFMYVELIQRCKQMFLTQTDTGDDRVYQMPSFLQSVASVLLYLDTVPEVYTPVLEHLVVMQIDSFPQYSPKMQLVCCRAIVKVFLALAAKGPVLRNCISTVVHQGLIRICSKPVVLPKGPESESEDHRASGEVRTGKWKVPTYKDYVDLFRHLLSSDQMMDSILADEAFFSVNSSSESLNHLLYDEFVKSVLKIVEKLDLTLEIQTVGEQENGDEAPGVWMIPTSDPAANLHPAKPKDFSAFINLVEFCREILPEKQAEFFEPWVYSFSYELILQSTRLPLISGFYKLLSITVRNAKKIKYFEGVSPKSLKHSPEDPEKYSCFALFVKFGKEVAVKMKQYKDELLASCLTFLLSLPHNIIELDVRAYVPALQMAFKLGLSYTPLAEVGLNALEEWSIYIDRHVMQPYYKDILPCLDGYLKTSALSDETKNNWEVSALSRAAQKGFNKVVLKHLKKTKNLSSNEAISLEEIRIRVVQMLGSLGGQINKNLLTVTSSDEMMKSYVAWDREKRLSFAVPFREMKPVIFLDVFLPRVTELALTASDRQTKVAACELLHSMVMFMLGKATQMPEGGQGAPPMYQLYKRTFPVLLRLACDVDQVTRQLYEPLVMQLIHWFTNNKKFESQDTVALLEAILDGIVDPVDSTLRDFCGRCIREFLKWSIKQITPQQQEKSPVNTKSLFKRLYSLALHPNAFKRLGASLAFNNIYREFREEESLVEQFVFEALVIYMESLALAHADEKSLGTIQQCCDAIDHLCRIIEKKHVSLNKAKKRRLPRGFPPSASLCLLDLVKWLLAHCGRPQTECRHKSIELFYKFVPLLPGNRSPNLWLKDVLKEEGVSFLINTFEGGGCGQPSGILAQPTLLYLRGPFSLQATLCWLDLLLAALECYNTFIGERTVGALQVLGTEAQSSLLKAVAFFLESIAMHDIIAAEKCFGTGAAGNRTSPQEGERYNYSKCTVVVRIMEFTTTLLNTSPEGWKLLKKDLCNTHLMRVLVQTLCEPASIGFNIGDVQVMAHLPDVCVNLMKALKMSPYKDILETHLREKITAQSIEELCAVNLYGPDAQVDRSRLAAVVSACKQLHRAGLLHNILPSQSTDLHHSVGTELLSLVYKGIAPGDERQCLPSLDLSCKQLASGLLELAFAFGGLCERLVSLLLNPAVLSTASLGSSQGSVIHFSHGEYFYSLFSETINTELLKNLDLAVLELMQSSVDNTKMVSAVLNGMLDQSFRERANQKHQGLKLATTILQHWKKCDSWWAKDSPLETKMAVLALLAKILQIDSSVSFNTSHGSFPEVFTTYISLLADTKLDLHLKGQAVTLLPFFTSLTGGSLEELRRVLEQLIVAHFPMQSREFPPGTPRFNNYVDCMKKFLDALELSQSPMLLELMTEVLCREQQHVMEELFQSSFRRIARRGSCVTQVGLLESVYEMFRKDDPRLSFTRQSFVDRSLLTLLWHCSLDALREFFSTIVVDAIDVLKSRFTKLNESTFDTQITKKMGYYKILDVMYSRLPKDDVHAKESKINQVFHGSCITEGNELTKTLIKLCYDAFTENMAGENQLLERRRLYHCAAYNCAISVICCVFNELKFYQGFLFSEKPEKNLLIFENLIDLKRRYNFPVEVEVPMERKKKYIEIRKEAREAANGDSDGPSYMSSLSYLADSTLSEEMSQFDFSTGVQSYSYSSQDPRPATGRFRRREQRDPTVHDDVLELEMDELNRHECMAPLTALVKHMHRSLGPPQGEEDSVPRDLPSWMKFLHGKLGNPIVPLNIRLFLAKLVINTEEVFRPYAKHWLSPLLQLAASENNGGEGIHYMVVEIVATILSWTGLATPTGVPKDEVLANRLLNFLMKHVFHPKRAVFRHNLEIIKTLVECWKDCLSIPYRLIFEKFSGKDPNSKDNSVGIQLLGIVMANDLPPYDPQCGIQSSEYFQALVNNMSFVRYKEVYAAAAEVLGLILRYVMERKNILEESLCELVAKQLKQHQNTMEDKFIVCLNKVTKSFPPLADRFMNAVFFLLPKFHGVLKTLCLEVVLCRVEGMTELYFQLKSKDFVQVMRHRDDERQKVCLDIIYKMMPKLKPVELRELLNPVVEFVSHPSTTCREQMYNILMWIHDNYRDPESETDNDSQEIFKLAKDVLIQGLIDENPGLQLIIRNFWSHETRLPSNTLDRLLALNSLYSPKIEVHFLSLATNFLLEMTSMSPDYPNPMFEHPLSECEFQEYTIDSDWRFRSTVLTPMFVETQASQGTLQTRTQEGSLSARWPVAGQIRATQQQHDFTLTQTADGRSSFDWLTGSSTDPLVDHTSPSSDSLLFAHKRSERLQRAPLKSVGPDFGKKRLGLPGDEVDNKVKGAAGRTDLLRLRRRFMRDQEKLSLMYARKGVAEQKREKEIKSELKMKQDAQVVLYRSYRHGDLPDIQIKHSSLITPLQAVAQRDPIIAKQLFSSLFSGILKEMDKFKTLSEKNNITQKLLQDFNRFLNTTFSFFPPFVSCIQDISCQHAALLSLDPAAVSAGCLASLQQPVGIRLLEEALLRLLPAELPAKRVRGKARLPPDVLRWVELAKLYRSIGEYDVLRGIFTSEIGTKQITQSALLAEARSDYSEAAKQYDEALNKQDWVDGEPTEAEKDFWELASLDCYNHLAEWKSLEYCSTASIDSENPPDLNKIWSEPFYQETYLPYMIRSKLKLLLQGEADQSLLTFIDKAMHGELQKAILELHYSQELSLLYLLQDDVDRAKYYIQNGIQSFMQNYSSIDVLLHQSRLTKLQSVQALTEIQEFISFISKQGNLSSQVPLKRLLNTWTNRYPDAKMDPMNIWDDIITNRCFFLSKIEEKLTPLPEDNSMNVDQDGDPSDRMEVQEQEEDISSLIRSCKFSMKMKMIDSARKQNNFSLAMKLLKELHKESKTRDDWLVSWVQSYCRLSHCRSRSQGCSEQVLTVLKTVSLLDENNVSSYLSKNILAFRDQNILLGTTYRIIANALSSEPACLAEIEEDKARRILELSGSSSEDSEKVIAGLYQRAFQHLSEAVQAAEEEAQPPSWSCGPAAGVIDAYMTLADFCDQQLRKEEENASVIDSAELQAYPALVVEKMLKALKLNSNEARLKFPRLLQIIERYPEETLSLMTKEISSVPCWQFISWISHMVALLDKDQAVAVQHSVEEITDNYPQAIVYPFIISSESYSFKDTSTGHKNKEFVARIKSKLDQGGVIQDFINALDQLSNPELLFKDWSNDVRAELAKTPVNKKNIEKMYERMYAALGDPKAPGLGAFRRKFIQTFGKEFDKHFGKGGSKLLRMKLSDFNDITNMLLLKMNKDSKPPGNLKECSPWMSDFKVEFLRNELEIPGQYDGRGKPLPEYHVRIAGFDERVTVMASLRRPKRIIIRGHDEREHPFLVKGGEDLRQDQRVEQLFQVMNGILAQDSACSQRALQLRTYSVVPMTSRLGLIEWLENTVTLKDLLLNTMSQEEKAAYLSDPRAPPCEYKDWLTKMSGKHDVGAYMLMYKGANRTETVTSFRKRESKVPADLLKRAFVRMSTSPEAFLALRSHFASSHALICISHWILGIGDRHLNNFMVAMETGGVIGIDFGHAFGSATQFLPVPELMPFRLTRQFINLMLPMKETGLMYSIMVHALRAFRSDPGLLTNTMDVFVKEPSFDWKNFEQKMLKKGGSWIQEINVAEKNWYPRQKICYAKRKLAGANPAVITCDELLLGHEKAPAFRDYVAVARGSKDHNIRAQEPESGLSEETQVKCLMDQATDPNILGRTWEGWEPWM
Chain of Phosphatidylinositol 4,5-bisphosphate 3-kinase catalytic subunit alpha isoform (P42336 whole entry, canonical isoform): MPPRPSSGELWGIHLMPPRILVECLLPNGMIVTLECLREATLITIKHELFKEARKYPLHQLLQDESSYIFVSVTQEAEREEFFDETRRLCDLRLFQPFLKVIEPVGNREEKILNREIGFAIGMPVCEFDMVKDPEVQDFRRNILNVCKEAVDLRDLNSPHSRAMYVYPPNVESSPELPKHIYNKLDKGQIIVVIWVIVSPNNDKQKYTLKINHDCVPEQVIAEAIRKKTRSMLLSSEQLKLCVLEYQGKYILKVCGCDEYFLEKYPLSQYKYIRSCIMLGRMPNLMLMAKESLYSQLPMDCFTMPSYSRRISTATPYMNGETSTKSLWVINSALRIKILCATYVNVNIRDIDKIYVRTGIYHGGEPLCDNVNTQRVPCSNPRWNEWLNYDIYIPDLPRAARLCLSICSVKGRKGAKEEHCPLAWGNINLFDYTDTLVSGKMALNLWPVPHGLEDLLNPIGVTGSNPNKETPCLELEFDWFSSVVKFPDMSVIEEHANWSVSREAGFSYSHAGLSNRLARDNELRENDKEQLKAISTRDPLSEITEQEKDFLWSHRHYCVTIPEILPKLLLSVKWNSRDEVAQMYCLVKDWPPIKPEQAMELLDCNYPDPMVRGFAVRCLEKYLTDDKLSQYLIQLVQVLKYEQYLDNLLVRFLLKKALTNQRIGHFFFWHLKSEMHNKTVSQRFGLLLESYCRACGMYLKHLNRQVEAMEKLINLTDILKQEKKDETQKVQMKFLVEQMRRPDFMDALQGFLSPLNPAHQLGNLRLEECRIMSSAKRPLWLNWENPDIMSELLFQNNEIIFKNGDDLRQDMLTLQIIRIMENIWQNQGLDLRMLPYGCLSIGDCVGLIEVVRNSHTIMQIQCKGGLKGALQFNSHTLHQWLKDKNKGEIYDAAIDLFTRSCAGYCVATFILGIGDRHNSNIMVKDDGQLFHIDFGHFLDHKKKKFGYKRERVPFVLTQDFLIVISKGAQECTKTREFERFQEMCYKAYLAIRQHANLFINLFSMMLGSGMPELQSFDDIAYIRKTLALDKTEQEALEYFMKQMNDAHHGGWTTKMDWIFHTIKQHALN

Row | IC50 [6] [µM] | solubility [7] [µM] | logD [8] | hepatocyte CLint [9] [µL/min/1e6 cells] | Papp A→B at […], 1 µM [11] [×10⁻⁶ cm/s] | Papp A→B at […], 0.1 µM [12] [×10⁻⁶ cm/s] | hepatocyte CLint [13] [µL/min/1e6 cells] | SMILES | other results
1 |  |  |  |  |  |  |  | CN(C)CCCOc1ccc(-c2ccc3ncc4c(c3c2)n(C2CCOCC2)c(=O)n4C)cn1 | Vdss [1]: 18 L/kg; bioavailability [2]: 54%; bioavailability [3]: 57%; Vdss [4]: 4.3 L/kg; pKa [5]: 9.4
2 | > 12.6 | 19 (≈ 7.68 µg/mL) | 2.3 | < 3 |  |  |  | COCc1ccc(-c2ccc3ncc4c(c3c2)n(C2CCOCC2)c(=O)n4C)cn1 | 
3 | > 20 | 480 (≈ 201 µg/mL) | 1.9 | 5.2 | 21 | 13 | 14 | CC(C)n1c(=O)n(C)c2cnc3ccc(-c4ccc(OCCCN(C)C)nc4)cc3c21 | efflux ratio at […], 1 µM (MDR1, BCRP [10]): 2.1; efflux ratio at […], 0.1 µM (MDR1, BCRP [14]): 6.3
4 |  | 125 (≈ 50.6 µg/mL) | 2.5 | 3.2 | 27 | 35 | 28 | COCc1ccc(-c2ccc3ncc4c(c3c2)n([C@H]2CCCOC2)c(=O)n4C)cn1 | 
5 |  |  |  |  |  |  |  | CN(C)CCCOc1ccc(-c2ccc3ncc4c(c3c2)n(C2CCOCC2)c(=O)n4[11CH3])cn1 | Tmax [15]: 0.333 h
6 | > 31.6 | 323 (≈ 135 µg/mL) | 2.7 | 18 | 24 |  | 46 | CC(C)n1c(=O)n(C)c2cnc3ccc(-c4ccc(OCCCN(C)C)cc4)cc3c21 | 
7 |  | > 1000 | 2.4 | 6.2 | 27 |  | 15 | CC(C)n1c(=O)n(C)c2cnc3ccc(-c4ccc(O[C@H]5CCN(C)C5)nc4)cc3c21 | 
8 | > 31.6 | 680 (≈ 298 µg/mL) | 2.1 | 6.7 | 56 | 23 | 13 | CC(C)n1c(=O)n(C)c2cnc3cc(F)c(-c4ccc(OCCCN(C)C)nc4)cc3c21 | Vdss [1]: 18 L/kg; bioavailability [2]: 31%; fraction unbound at 16 h [16]: 0.42; IC50 [17]: > 31.6 µM; fraction unbound at 16 h [18]: 0.17; bioavailability [3]: 48%; Vdss [4]: 4.1 L/kg; fraction unbound at 16 h [19]: 0.32; IC50 [20]: > 31.6 µM; half-life [21]: 6.4 h; half-life [22]: 3.2 h; IC50 [23]: 15.8 µM
9 |  | 42 (≈ 15.2 µg/mL) | 2.7 | 34 |  | 39 | 9 | COCc1ccc(-c2ccc3ncc4c(c3c2)n(C(C)C)c(=O)n4C)cn1 | 
10 | > 15.8 | 39 (≈ 16.9 µg/mL) | 1.9 | 2.1 |  | 5 | 19 | CC(C)n1c(=O)n(C)c2cnc3ccc(-c4ccc(OCCCCN(C)C)nc4)cc3c21 | 
11 |  | 826 (≈ 380 µg/mL) | 2.6 | 2.4 | 25 |  | 5.8 | CC(C)n1c(=O)n(C)c2cnc3ccc(-c4ccc(OCCCN5CCCCC5)nc4)cc3c21 | 
12 | > 31.6 | > 1000 | 1.7 | 5.7 | 23 | 15 | 15 | CC(C)n1c(=O)n(C)c2cnc3ccc(-c4ccc(OC[C@@H]5CCN(C)C5)nc4)cc3c21 | 
13 |  | 10 (≈ 4.17 µg/mL) | 3 | 4.8 | 32 | 18 | 44 | CC(C)n1c(=O)n(C)c2cnc3ccc(-c4ccc(N5CC(N(C)C)C5)nc4)cc3c21 | pKa [5]: 7.1
14 | > 25.1 | 421 (≈ 171 µg/mL) | 2.1 | 6.1 | 52 |  | 24 | CC(C)n1c(=O)n(C)c2cnc3ccc(-c4ccc(OCCN(C)C)nc4)cc3c21 | 
15 |  | 137 (≈ 59 µg/mL) | 3 | 3.8 | 22 |  | 25 | CC(C)n1c(=O)n(C)c2cnc3ccc(-c4ccc(N5CC[C@H](N(C)C)C5)nc4)cc3c21 | 
16 | > 31.6 | 928 (≈ 398 µg/mL) | 1.7 | < 1 | 6 |  | 2.4 | CC(C)n1c(=O)n(C)c2cnc3ccc(-c4ccc(N5CC6(CN(C)C6)C5)nc4)cc3c21 | 
17 |  | 604 (≈ 287 µg/mL) | 2.7 | 8.7 | 18 | 9.7 | 8.7 | CO[C@H]1CC[C@H](n2c(=O)n(C)c3cnc4ccc(-c5ccc(OCCCN(C)C)cc5)cc4c32)C1 | 
18 |  | > 1000 | 2.4 | 2.6 |  | 17 | 6.6 | CO[C@H]1C[C@H](n2c(=O)n(C)c3cnc4ccc(-c5ccc(OCCCN6CCCCC6)nc5)cc4c32)C1 | fraction unbound at 16 h [16]: 0.22; fraction unbound at 16 h [18]: 0.04; bioavailability [3]: 19%; Vdss [4]: 2.4 L/kg; fraction unbound at 16 h [19]: 0.19; IC50 [20]: > 1.26 µM; half-life [22]: 4 h; IC50 [23]: 2 µM
19 | > 31.6 | 17 (≈ 7.39 µg/mL) | 3.2 | 6.5 | 19 | 17 | 22 | CC(C)n1c(=O)n(C)c2cnc3cc(F)c(-c4ccc(N5CCN(C)CC5)nc4)cc3c21 | pKa [5]: 7.8
20 | > 31.6 | 787 (≈ 364 µg/mL) | 2.4 | 2.4 | 22 | 9.4 | 6.3 | CC(C)n1c(=O)n(C)c2cnc3cc(F)c(-c4ccc(N5CCC(N(C)C)CC5)nc4)cc3c21 | pKa [5]: 9.1
21 |  | 521 (≈ 225 µg/mL) | 2.7 | < 1 |  | 39 | 12 | COCc1ccc(-c2ccc3ncc4c(c3c2)n([C@@H]2CCOCC2(C)C)c(=O)n4C)cn1 | Vdss [1]: 3.7 L/kg; bioavailability [2]: 9%; fraction unbound at 16 h [16]: 0.23; IC50 [17]: 1.58 µM; fraction unbound at 16 h [18]: 0.14; bioavailability [3]: 39%; Vdss [4]: 1.9 L/kg; fraction unbound at 16 h [19]: 0.08; IC50 [20]: 0.501 µM; half-life [21]: 3.3 h; half-life [22]: 1.1 h; IC50 [23]: > 5.01 µM
22 | > 15.8 | 88 (≈ 44.1 µg/mL) | 2.5 | 2.9 | 13 | 7.5 | 5.3 | Cn1c(=O)n(C2CCOCC2)c2c3cc(-c4ccc(OCCCN5CCCCC5)cc4)ccc3ncc21 | 
23 |  | 990 (≈ 400 µg/mL) | 2 | 3.5 | 3.2 |  | 20 | COCc1ccc(-c2ccc3ncc4c(c3c2)n([C@H]2C[C@@H](CO)C2)c(=O)n4C)cn1 | 
24 | > 31.6 | 851 (≈ 392 µg/mL) | 2.4 | 7.9 | 22 | 9.7 | 8.1 | CN(C)CCCOc1ccc(-c2ccc3ncc4c(c3c2)n([C@@H]2CCCOC2)c(=O)n4C)cc1 | 
25 |  | 789 (≈ 330 µg/mL) | 3 | 5.3 | 24 | 37 | 40 | COCc1ccc(-c2ccc3ncc4c(c3c2)n([C@@H]2CC[C@@H](OC)C2)c(=O)n4C)cn1 (relative stereo) | 

Row | SMILES | IC50 [6] [µM] | solubility [7] [µM] | logD [8] | hepatocyte CLint [9] [µL/min/1e6 cells] | Papp A→B at […], 1 µM [11] [×10⁻⁶ cm/s] | Papp A→B at […], 0.1 µM [12] [×10⁻⁶ cm/s] | hepatocyte CLint [13] [µL/min/1e6 cells] | other results
26 | CC(C)n1c(=O)n(C)c2cnc3cc(F)c(-c4ccc(OCCCN5CCCCC5)nc4)cc3c21 [AZD-1390] | > 31.6 | 693 (≈ 331 µg/mL) |  |  | 24 | 17 |  | Vdss [1]: 24 L/kg; bioavailability [2]: 66%; fraction unbound at 16 h [16]: 0.25; IC50 [17]: > 31.6 µM; fraction unbound at 16 h [18]: 0.04; bioavailability [3]: 74%; Vdss [4]: 3 L/kg; fraction unbound at 16 h [19]: 0.26; IC50 [20]: > 15.8 µM; IC50 [24]: 0.000794 µM; IC50 [23]: > 12.6 µM
